The record followed here is publication PMC6832219, “Synthesis of Novel Baicalein Amino Acid Derivatives and Biological Evaluation as Neuroprotective Agents” (Molecules, 2019).

The structures appear in SMILES notation.

Data set [1] deals with chick chorioallantoic membrane (CAM). Nature of the data set: Angiogenesis assay on chick chorioallantoic membrane (CAM), gelatin sponge. It is filed as in vivo. To be noted: 1 and 4 mg/mL on gelatin sponge. Here is the method: Especially multi-effective neuroprotective agents present positive effects to neurosurgical patients. According to the references, baicalein can promote angiogenesis. Analogously, the angiogenesis activities of compound 8 were evaluated by a CAM assay (Figure 4 and Figure 5). The model was established according to our previous work. After implantation, the sponge is treated with a stimulator of blood vessel formation in the absence or presence of an angiogenesis inhibitor. […] The high survival rate of embryos and normal growth of medium and large vessels (inner diameter > 50 µm) indicates successful modeling and low toxicity of compound 8 […] (Figure 5). Suppression of small vessels (inner diameter < 50 µm) were recognized as angiogenesis activity. […]
Fertilized White Leghorn chicken eggs (50–65 g), provided by the Chinese Academy of Agricultural Sciences, were placed in an incubator as soon as embryogenesis started, and were kept under constant humidity of 65% at 37 °C. […] Quantitative evaluation of the angiogenic response, expressed as microvessel density, can be obtained by applying a morphometric method of “point counting” on histological CAM sections. Data was analyzed using a t-test of the statistics analysis system; the values were expressed as mean ± SD of six observations, and p < 0.05 was considered significant. […]

The test system of data set [2] is injured SH-SY5Y cells. Kind of data set: Protective effect against tert-butyl hydroperoxide-induced SH-SY5Y neurotoxicity cells (MTT assay).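 On Proliferation Rate (%): 0% equals CoCl2-injured cells and 100% equals NGF-treated cells.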 The following applies: Homo sapiens. It is filed as cell-based. In general terms: Formazan colour is commonly taken as a measure of viable cells.

For `O=C(NC(Cc1ccccc1)C(=O)Oc1c(O)cc2oc(-c3ccccc3)cc(=O)c2c1O)OCc1ccccc1` (centres unmarked) [Compound 8, 5,7-dihydroxy-4-oxo-2-phenyl-4H-chromen-6-yl 2-{[(benzyloxy)carbonyl]amino}-3-phenyl-proppanpate], the “Toxicity in CAM model (embryo survival, medium and large vessels)” value in data set [1] is recorded as “low toxicity”. The “Angiogenesis activity on CAM (small vessels)” value in data set [1] (48 h) is “dramatically promote small angiogenesis in a dose-dependent manner”. Moreover, in data set [2] (3.125 µM, injured SH-SY5Y cells, read-out: Proliferation Rate (%)), the viability at 3.125 µM was determined as 52.5%. Moreover, the viability at 6.25 µM in data set [2] (6.25 µM, injured SH-SY5Y cells, read-out: Proliferation Rate (%)) amounted to 75.1%. Further, the viability at 12.5 µM in data set [2] (12.5 µM, injured SH-SY5Y cells, read-out: Proliferation Rate (%)) came out at 83.1%. For the same compound, the viability at 25 µM in data set [2] (25 µM, injured SH-SY5Y cells, read-out: Proliferation Rate (%)) is 87.3%. Further, the viability at 50 µM in data set [2] (50 µM, injured SH-SY5Y cells, read-out: Proliferation Rate (%)) was determined as 94%. In addition, in data set [2] (tert-butyl hydroperoxide-induced SH-SY5Y neurotoxicity, read-out: EC50 for protecting injured SH-SY5Y cells), the EC50 (usually the concentration needed to bring the measured effect to its halfway point) was 4.31 µM.
